Assay results from patent publication US11420944B2, “Voltage-dependent t-type calcium channel blocker” (Nippon Chemiphar Co., Ltd., priority 2016, dated 2022).
Read-outs that look alike come from different tables or passages of the source.

Legend:
human Cav3.2 channels [1] = molecular target: T1, human Cav3.2 channels (Homo sapiens, UniProt O95180); assay: Intracellular calcium concentration measurement (Fluo-4 AM) in stable cells expressing human Cav3.2 channels, buffer A / buffer B; format: cell-based
T1 construct: expressed in transfected cells; host or cells: HEK293 cells (ATCC No. CRL-1573), plasmid pcDNA3.1(+)
T1 sequence (O95180 whole entry): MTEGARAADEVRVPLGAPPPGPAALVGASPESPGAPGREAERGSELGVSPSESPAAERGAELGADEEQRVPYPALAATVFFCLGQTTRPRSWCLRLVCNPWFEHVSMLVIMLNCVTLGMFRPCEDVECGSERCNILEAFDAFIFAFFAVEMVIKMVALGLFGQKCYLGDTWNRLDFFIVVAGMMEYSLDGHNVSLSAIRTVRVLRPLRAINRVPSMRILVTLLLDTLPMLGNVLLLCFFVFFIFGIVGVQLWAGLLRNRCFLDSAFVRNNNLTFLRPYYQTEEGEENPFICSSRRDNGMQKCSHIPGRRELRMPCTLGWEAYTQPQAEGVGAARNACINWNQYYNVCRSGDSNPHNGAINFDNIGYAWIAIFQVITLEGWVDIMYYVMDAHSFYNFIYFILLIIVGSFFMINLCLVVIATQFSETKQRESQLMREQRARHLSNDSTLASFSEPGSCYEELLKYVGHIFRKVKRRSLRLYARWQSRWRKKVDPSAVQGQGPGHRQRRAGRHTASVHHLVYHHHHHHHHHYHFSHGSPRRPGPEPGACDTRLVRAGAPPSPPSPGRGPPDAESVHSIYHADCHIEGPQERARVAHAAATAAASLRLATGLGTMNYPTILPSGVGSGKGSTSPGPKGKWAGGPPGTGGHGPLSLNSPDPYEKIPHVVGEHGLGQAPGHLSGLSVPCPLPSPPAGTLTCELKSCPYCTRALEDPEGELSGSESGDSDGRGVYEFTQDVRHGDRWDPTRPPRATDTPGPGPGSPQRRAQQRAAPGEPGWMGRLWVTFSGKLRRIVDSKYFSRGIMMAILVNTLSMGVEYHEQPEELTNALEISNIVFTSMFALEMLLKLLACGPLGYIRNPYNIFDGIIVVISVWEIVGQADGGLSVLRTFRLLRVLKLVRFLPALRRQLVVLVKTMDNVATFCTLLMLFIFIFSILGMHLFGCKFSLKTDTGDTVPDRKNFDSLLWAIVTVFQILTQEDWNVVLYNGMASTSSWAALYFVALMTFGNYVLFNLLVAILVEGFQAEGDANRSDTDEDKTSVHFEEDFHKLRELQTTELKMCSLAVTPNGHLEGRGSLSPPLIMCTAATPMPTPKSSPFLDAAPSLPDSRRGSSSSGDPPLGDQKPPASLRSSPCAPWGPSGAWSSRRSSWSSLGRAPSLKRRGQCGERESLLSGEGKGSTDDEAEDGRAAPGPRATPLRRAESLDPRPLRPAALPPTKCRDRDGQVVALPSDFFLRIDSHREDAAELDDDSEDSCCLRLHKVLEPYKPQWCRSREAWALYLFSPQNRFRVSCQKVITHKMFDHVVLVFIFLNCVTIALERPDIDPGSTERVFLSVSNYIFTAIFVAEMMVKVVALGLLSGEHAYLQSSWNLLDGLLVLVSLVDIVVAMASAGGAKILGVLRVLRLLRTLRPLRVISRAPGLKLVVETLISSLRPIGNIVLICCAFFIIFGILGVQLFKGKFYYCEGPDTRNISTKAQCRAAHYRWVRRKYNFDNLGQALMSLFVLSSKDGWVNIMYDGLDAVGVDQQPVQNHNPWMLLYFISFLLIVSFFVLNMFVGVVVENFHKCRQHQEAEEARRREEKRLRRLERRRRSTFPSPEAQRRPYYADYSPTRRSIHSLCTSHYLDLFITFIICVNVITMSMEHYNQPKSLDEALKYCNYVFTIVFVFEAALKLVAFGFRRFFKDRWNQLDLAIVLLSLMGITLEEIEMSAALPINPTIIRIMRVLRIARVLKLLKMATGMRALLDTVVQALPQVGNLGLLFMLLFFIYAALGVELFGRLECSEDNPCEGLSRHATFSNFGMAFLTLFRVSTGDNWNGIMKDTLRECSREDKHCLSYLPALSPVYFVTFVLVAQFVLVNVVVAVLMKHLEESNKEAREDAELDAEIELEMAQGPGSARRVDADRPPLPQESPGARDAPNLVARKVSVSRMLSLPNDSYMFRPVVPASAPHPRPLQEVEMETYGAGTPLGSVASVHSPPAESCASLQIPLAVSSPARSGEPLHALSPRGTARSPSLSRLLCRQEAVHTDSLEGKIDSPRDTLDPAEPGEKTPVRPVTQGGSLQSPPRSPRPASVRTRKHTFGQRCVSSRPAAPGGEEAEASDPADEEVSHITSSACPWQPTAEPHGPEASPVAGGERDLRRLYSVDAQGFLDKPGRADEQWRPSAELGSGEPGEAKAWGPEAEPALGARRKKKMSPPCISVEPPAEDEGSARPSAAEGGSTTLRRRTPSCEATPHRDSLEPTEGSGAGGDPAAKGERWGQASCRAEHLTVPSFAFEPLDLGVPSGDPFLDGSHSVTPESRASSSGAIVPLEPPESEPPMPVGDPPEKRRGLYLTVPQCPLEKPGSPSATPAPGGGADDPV
Summary of the method: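 HEK293 cells stably expressing human Cav3.2, Fluo-4 loaded, preincubated 15 min at room temperature with compound (0.1% DMSO final) in buffer A (K+ equilibrium −92 mV) or B (−110 mV). After ionophore, KCl (83.8 or 91.8 mM) stimulus; 10 s fluorescence rise (ex 485/em 510 nm) gave % inhibition and IC50.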

human Cav3.2 channels [2] = molecular target: T1, human Cav3.2 channels; assay: Electrophysiological evaluation, whole-cell patch-clamp with automatic patch-clamp system; format: cell-based; conditions: for inhibition at 0.3 µM: holding potential −80 mV, read-out: Cav3.2 channel current inhibition ratio at 0.3 μM of test compound (holding potential −80 mV)
Protocol: Electrophysiological Evaluation
Stable cell line expressing human Cav3.2 channels, which had been produced by Test method (1) of Example 140, was seeded in a 10-cm dish using DMEM medium containing 10% FBS, and the cells were cultured for 24 hours or longer under the conditions of 37° C. and 5% CO2. The cells were detached using Accutase and were used after being suspended in ice-cold extracellular solution. The Cav3.2 channel current was measured by the Whole-cell patch-clamp method using an automatic patch-clamp system (Port-a-Patch; Nanion Technologies GmbH, EPC-10; HEKA Elektronik GmbH, Patchmaster; HEKA Elektronik GmbH) and buffers described below. Measurement of the Cav3.2 channel current was carried out at room temperature, and the measurement conditions were set as follows: holding potential: −80 mV, depolarization potential: −20 mV, depolarization time: 100 msec, and depolarization frequency: 10 sec. The Cav3.2 channel current was defined as the peak value of the inward current observed when depolarization occurred at −20 mV.
For a test compound, a DMSO solution was diluted 1,000 times with extracellular solution, and thus a solution having an intended concentration was produced. The test compound was applied using an extracellular perfusion system (Nanion Technologies GmbH) until the Cav3.2 channel current was stabilized, and five concentrations at the maximum from the low-concentration side were cumulatively applied. The inhibition ratio of the test compound was calculated from the current value immediately before the application of the test compound and the change rate of the Cav3.2 channel current after the application of the test compound (conditions for a holding potential of −80 mV: test compound concentration of 0.3 μM, conditions for a holding potential of −100 mV: test compound concentration of 3 μM).
Extracellular solution: 135 mM NaCl, 4 mM KCl, 1 mM MgCl2, 5 mM CaCl2, 5 mM D-Glucose, and 10 mM HEPES, pH 7.4
Internal solution for electrode: 10 mM NaCl, 10 mM HEPES, 50 mM CsCl, 60 mM CsF, and 20 mM EGTA, pH 7.2

CYP3A4 = molecular target: T2, CYP3A4 (Homo sapiens, UniProt P08684); assay: Evaluation of CYP3A4 activity inhibitory action; format: in vitro ADME; conditions: Human CYP3A4BR EasyCYP Bactosomes, 7-Benzyloxy-4-(trifluoromethyl)-coumarin
T2 construct: purchased Cypex, Ltd; host or cells: E. coli membranes (Bactosomes)
T2 sequence (P08684 whole entry): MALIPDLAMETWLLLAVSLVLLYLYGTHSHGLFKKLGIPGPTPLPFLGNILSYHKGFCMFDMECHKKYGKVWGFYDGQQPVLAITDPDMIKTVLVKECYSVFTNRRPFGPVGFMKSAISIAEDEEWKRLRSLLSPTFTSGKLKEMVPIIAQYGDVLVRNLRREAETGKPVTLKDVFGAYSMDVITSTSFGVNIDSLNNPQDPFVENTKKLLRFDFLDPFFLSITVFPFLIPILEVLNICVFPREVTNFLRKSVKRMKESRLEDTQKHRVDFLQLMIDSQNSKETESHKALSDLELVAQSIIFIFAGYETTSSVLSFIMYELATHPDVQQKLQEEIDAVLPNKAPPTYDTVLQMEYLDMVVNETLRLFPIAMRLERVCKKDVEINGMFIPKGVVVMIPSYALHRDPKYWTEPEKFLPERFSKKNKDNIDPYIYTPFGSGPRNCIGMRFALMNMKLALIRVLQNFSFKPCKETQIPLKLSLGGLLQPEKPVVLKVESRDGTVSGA
Protocol: Evaluation of CYP3A4 Activity Inhibitory Action
To a 50 mM potassium phosphate buffer solution (pH 7.4), 5 nM Human CYP3A4BR EasyCYP Bactosomes (Cypex, Ltd.), 50 μM 7-Benzyloxy-4-(trifluoromethyl)-coumarin, cofactor mix (0.0081 mM β-NADP^+, 0.4 mM G-6-P, 0.4 mM MgCl2, and 0.2 U/mL G-6-P DH(Y)), and 0.01% Pluronic F-127 were added, and the mixture was incubated for 45 minutes at 37° C. The reaction was initiated by adding the cofactor mix. After the incubation, 0.5 M Tris base/acetonitrile (20:80) was added thereto as a reaction terminating liquid, and the resulting mixture was stirred. Subsequently, the fluorescence intensity (excitation: 405 nm, emission: 535 nm) was measured. The reaction was carried out in duplicate. The results are presented as the inhibition rate at 10 μM of the test compound.

[3] = Tables 2 to 6, buffer A, equilibrium potential of potassium −92 mV, read-out: Inhibitory action of buffer A (inactivated state)
[4] = Table 1, buffer A, equilibrium potential of potassium −92 mV, read-out: Inhibitory action of buffer A (inactivated state)
[5] = Table 1, buffer B, equilibrium potential of potassium −110 mV, read-out: Inhibitory action of buffer B (resting state or closed state)

For `C[C@@H](NC(=O)[C@H]1C[C@@H]1c1nc2ccccc2[nH]1)c1cc2ccc(F)cc2o1` [Example 100, (1S,2S)-2-(1H-benzo[d]imidazol-2-yl)-N—((R)-1-(6-fluorobenzofuran-2-yl)ethyl)cyclopropane-1-carboxamide], the IC50 (human Cav3.2 channels [1]; [3]) was ≤ 100 nM, the inhibition at 0.3 µM (human Cav3.2 channels [2]) was 90% and the “Cav3.2 channel current inhibition ratio at 3 μM of test compound (holding potential −100 mV)” value (human Cav3.2 channels [2]; 3 μM, holding potential −100 mV) was 52%. The “CYP3A4 activity inhibition ratio at 10 μM of test compound” value (“CYP3A4 activity inhibition ratio” for short) (CYP3A4) was 27.9%.
`C[C@@H](NC(=O)[C@H]1C[C@@H]1c1nc2ccccc2[nH]1)c1cc2c(F)cc(F)cc2o1` [Example 92, (1S,2S)-2-(1H-benzo[d]imidazol-2-yl)-N—((R)-1-(4,6-difluorobenzofuran-2-yl)ethyl)cyclopropane-1-carboxamide] was tested, and the IC50 (human Cav3.2 channels [1]; [3]) was ≤ 100 nM, the inhibition at 0.3 µM (human Cav3.2 channels [2]) was 74% and the “CYP3A4 activity inhibition ratio” value (CYP3A4) was 23.6%.
For `C[C@@H](NC(=O)[C@H]1C[C@@H]1c1nc2ccccc2[nH]1)c1cc2cc(F)c(F)cc2o1` [Example 91, (1S,2S)-2-(1H-benzo[d]imidazol-2-yl)-N—((R)-1-(5,6-difluorobenzofuran-2-yl)ethyl)cyclopropane-1-carboxamide], the IC50 (human Cav3.2 channels [1]; [3]) was ≤ 100 nM, the inhibition at 0.3 µM (human Cav3.2 channels [2]) was 72% and the “CYP3A4 activity inhibition ratio” value (CYP3A4) was 20.1%.
For `C[C@@H](NC(=O)C1CC1c1nc2ccccc2[nH]1)c1ccc(C(F)(F)F)s1` (single isomer, unassigned) [Example 5A], the IC50 (human Cav3.2 channels [1]; [4]) was 100 to 1000 nM, the IC50 (human Cav3.2 channels [1]; [5]) was 100 to 1000 nM and the inhibition at 0.3 µM (human Cav3.2 channels [2]) was 59%. For the same compound, the “CYP3A4 activity inhibition ratio” value (CYP3A4) was 13.0%.
With `C[C@@H](NC(=O)C1CC1c1nc2ccccc2n1C)c1ccc(OCC(F)(F)F)s1` (single isomer, unassigned) [Example 4A] the IC50 (human Cav3.2 channels [1]; [4]) was ≤ 100 nM, the IC50 (human Cav3.2 channels [1]; [5]) was > 10000 nM and the inhibition at 0.3 µM (human Cav3.2 channels [2]) was 58%. For the same compound, the “CYP3A4 activity inhibition ratio” value (CYP3A4) was 39.6%.
For `C[C@@H](NC(=O)[C@H]1C[C@@H]1c1nc2ccccc2[nH]1)c1ccc(C(=O)N2CCC(F)(F)C2)s1` [Example 60, Trans-2-(1H-benzo[d]imidazol-2-yl)-N—((R)-1-(5-(3,3-difluoropyrrolidine-1-carbonyl)thiophen-2-yl)ethyl)cyclopropane-1-carboxamide], the IC50 (human Cav3.2 channels [1]; [3]) was 100 to 1000 nM, the inhibition at 0.3 µM (human Cav3.2 channels [2]) was 48% and the “CYP3A4 activity inhibition ratio” value (CYP3A4) was −1.2%.
In the case of `C[C@@H](NC(=O)[C@H]1C[C@@H]1c1nc2ccccc2[nH]1)c1cc2cc(F)ccc2[nH]1` [Example 63, (1S,2S)-2-(1H-benzo[d]imidazol-2-yl)-N—((R)-1-(5-fluoro-1H-indol-2-yl)ethyl)cyclopropane-1-carboxamide], the IC50 (human Cav3.2 channels [1]; [3]) is reported as ≤ 100 nM, the inhibition at 0.3 µM (human Cav3.2 channels [2]) is reported as 91% and the “CYP3A4 activity inhibition ratio” value (CYP3A4) is reported as 45.7%.
In the case of `C[C@@H](NC(=O)[C@@H]1CCN(CC(=O)Nc2cc(Cl)cc(Cl)c2)C1)c1ccc(OCC(F)(F)F)s1` [Example 42, (R)-1-(2-((3,5-dichlorophenyl)amino)-2-oxoethyl)-N—((R)-1-(5-(2,2,2-trifluoroethoxy)thiophen-2-yl)ethyl)pyrrolidine-3-carboxamide], the IC50 (human Cav3.2 channels [1]; [3]) is reported as ≤ 100 nM, the inhibition at 0.3 µM (human Cav3.2 channels [2]) is reported as 87% and the “CYP3A4 activity inhibition ratio” value (CYP3A4) is reported as 77.9%.
Work on `C[C@@H](NC(=O)[C@@H]1CCN(CC(=O)NC(C)(C)C)C1)c1ccc(OCC(F)(F)F)s1.Cl` [Example 15, (R)-1-(2-(tert-butylamino)-2-oxoethyl)-N—((R)-1-(5-(2,2,2-trifluoroethoxy)thiophen-2-yl)ethyl)pyrrolidine-3-carboxamide hydrochloride] yielded an IC50 (human Cav3.2 channels [1]; [4]) of 100 to 1000 nM, an IC50 (human Cav3.2 channels [1]; [5]) of 1000 to 10000 nM and an inhibition at 0.3 µM (human Cav3.2 channels [2]) of 33%. The “CYP3A4 activity inhibition ratio” value (CYP3A4) was 21.9%.
`C[C@@H](NC(=O)[C@H]1C[C@@H]1c1nc2ccccc2[nH]1)c1nc2ccc(F)cc2o1` [Example 114, (1S,2S)-2-(1H-benzo[d]imidazol-2-yl)-N—((R)-1-(6-fluorobenzo[d]oxazol-2-yl)ethyl)cyclopropane-1-carboxamide] was tested, and the IC50 (human Cav3.2 channels [1]; [3]) was 100 to 1000 nM, the inhibition at 0.3 µM (human Cav3.2 channels [2]) was 32% and the “CYP3A4 activity inhibition ratio” value (CYP3A4) was 30.0%.
For `C[C@@H](NC(=O)C1CC1c1ccc2cnn(C)c2c1)c1ccc(OCC(F)(F)F)s1` (single isomer, unassigned) [Example 22A], the IC50 (human Cav3.2 channels [1]; [3]) was 100 to 1000 nM, the inhibition at 0.3 µM (human Cav3.2 channels [2]) was 81% and the “CYP3A4 activity inhibition ratio” value (CYP3A4) was 12.2%.
For `C[C@@H](NC(=O)C1CC1c1nc2ccccc2[nH]1)c1ccc(C(=O)O)s1` (single isomer, unassigned) [Example 26], the IC50 (human Cav3.2 channels [1]; [3]) was 100 to 1000 nM, the inhibition at 0.3 µM (human Cav3.2 channels [2]) was 19% and the “CYP3A4 activity inhibition ratio” value (CYP3A4) was 11.3%.
With `C[C@@H](NC(=O)[C@H]1C[C@@H]1c1nc2ccccc2[nH]1)c1nc2cc(F)ccc2o1` [Example 105, (1S,2S)-2-(1H-benzo[d]imidazol-2-yl)-N—((R)-1-(5-fluorobenzo[d]oxazol-2-yl)ethyl)cyclopropane-1-carboxamide] the IC50 (human Cav3.2 channels [1]; [3]) was 100 to 1000 nM, the inhibition at 0.3 µM (human Cav3.2 channels [2]) was 58% and the “CYP3A4 activity inhibition ratio” value (CYP3A4) was 21.2%.
With `C[C@@H](NC(=O)C1CC1c1nc2cc(Cl)ccc2[nH]1)c1cnc(OCC(F)(F)F)s1` (single isomer, unassigned) [Example 64A] the IC50 (human Cav3.2 channels [1]; [3]) was ≤ 100 nM, the inhibition at 0.3 µM (human Cav3.2 channels [2]) was 52% and the “CYP3A4 activity inhibition ratio” value (CYP3A4) was 4.4%.
`C[C@@H](NC(=O)[C@@H]1CCN(CC(=O)NC23CC4CC(CC(C4)C2)C3)C1)c1ccc(OCC(F)(F)F)s1` [Example 36, (R)-1-(2-(adamantan-1-ylamino)-2-oxoethyl)-N—((R)-1-(5-(2,2,2-trifluoroethoxy)thiophen-2-yl)ethyl)pyrrolidine-3-carboxamide] was tested, and the IC50 (human Cav3.2 channels [1]; [3]) was ≤ 100 nM, the inhibition at 0.3 µM (human Cav3.2 channels [2]) was 94% and the “CYP3A4 activity inhibition ratio” value (CYP3A4) was 81.0%.
In the case of `C[C@@H](NC(=O)C1CC1c1nc2ccccc2[nH]1)c1ccc(C(=O)N2CCCCC2)s1` (stereo in doubt) [Example 61, Trans-2-(1H-benzo[d]imidazol-2-yl)-N—((R)-1-(5-(piperidine-1-carbonyl)thiophen-2-yl)ethyl)cyclopropane-1-carboxamide], the IC50 (human Cav3.2 channels [1]; [3]) is reported as 100 to 1000 nM, the inhibition at 0.3 µM (human Cav3.2 channels [2]) is reported as 53% and the “CYP3A4 activity inhibition ratio” value (CYP3A4) is reported as 4.5%.
